From PMC5036617 (Toxicological Sciences, 2016)

How the values were obtained:
[1] = system: HepG2 cells; assay: Mitochondrial stress test, OCR analysis (Seahorse XFe96); format: cell-based; details: for basal respiration / maximal respiration: glucose medium, 7.8–500 µM; for basal respiration / maximal respiration / ATP-linked OCR as a percentage of maximal respiration / proton leak as a percentage of maximal respiration / spare respiratory capacity as a percentage of maximal respiration: vs vehicle control
Protocol: HepG2 cells were collected by trypsinization and seeded on a collagen-coated XF 96-well cell culture microplate (25 000 cells/100 µl medium/well) and incubated overnight in glucose medium (37 °C, 5% CO2). All assays used ≤ 0.5% DMSO as a vehicle control. Cells were incubated for 1 h (37°C, 0% CO2) before culture medium was replaced by 175 µl of unbuffered Seahorse XF Base medium supplemented with glucose (25 mM), L-glutamine (2 mM), sodium pyruvate (1 mM), pre-warmed to 37 °C (pH 7.4). Prior to measurement of OCR, the Seahorse XFe96 instrument gently mixed the assay medium in each well for 10 min to enable the oxygen partial pressure to reach equilibrium. […] There were 9 OCR measurement cycles following compound injection and each measurement cycle consisted of a 3 min mix and 3 min measure. […] After stress test compound injections there were 3 measurement cycles before the injection of the next stress test compound. This enabled the calculation of basal respiration (OCR prior to oligomycin injection—non-mitochondrial OCR), proton leak (OCR after oligomycin injection—non-mitochondrial OCR), ATP-linked OCR (basal respiration—proton leak—non-mitochondrial OCR), maximal respiration (first injection after FCCP injection—non-mitochondrial OCR) and spare respiratory capacity (maximal respiration—basal respiration) (Figure 2).  FIG. 2 Representative control mitochondrial stress test trace. Mitochondrial stress test assays consisted of a series of compound injections into the cell culture microplate. […] Remaining injections consisted of oligomycin (ATP synthase inhibitor), FCCP (OXPHOS uncoupler), and rotenone/antimycin A (complex I and III inhibitors, respectively) with each followed by 3 measurement cycles. This series of manipulations enabled the calculation of parameters: basal, ATP-linked, maximum, and non-mitochondrial OCR, as well as proton leak. Each measurement cycle was a total of 6 min. Following completion of OCR assays, medium was removed from all wells and 20 µl of somatic cell ATP releasing agent was added to each well before shaking for 1 min and transfer of 10 µl of lysate to a 96-well plate and performance of a BCA assay according to the manufacturer’s instructions. Protein content per well was used to normalize OCR.

[2] = system: mitochondrial respiratory complex I; assay: In situ respiratory complex assay in permeabilized cells, complex I; format: cell-based; details: uncoupled, permeabilized HepG2 cells, 10–250 µM
[3] = ref Chu et al., 1998; Wysowski and Fourcroy, 1996; cited from earlier work
[4] = system: androgen receptor; set-up: method as in Shet et al., 1997; details: metabolite compared with parent compound; ref Shet et al., 1997; cited from earlier work

| Compound | basal respiration [1] | maximal respiration [1] | OCR upon compound injection, mitochondrial stress test ([1]; up to 500 µM) | ATP-linked OCR as a percentage of maximal respiration ([1]; up to 500 µM) | proton leak as a percentage of maximal respiration ([1]; up to 500 µM) | spare respiratory capacity as a percentage of maximal respiration ([1]; up to 500 µM) | complex I activity (response to rotenone) [2] | cases of hospitalization or death (idiosyncratic DILI) in treated patients [3] [%] | androgen receptor binding affinity [4] |
| --- | --- | --- | --- | --- | --- | --- | --- | --- | --- |
| CC(C)C(=O)Nc1ccc([N+](=O)[O-])c(C(F)(F)F)c1 [Flutamide] | significant decrease | significant decrease | immediate concentration-dependent reduction in OCR | significant decrease | significant increase | significant decrease | significant reduction in complex I activity | 0.03 | – |
| CC(C)(O)C(=O)Nc1ccc([N+](=O)[O-])c(C(F)(F)F)c1 [2-hydroxyflutamide] | significant decrease | significant decrease | – | significant decrease | significant increase | significant decrease | significant reduction in complex I activity | – | higher androgen receptor binding affinity than its parent compound |
